Results on 25 compounds are retold here after patent US20100272680A1, “Piperidinyl Cyclic Amido Antiviral Agents” (priority 2009, published 2010).

One experiment deals with HCV Genotype 1A Replicon. The experiment in a line: Replicon assay, genotype 1a subgenomic replicon, luciferase readout. The following applies: Hepatitis C virus, 48 h, Table 3; luciferase activity after 48 hours. Type of experiment: cell-based. Summed up: (§1)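 Stable luciferase replicon cells (1b: ET line with adaptive mutations; 1a: Apath-derived) plated at 0.5×10^4 cells/well with compound (final 0.03–50 μM, 0.5–1% DMSO). Luciferase read after 48 h; EC50 from 10-point, 3–4-fold dilution curves by four-parameter logistic fit, normalized to no-compound and no-cell controls.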

A further experiment deals with HCV Genotype 1B Replicon. The experiment is described as follows: Replicon assay, genotype 1b subgenomic replicon (ET cell line), luciferase readout. Type of experiment: cell-based. The conditions noted are these: Hepatitis C virus, 48 h, Table 3; luciferase activity after 48 hours. In short, it runs like this:
as §1
(A replicon is a self-replicating genome or part of one, used to study replication in cells.)

On to `CC1(C)CN(C2CCN(C(=O)c3nc4c(C(F)(F)F)cc(-c5ccoc5)cn4c3Cl)CC2)C(=O)O1` [Compound 181, 3-(1-{[3-chloro-6-(3-furanyl)-8-(trifluoromethyl)imidazo[1,2-a]pyridin-2-yl]carbonyl}-4-piperidinyl)-5,5-dimethyl-1,3-oxazolidin-2-one], for which the figures for the EC50 in the experiment with HCV Genotype 1A Replicon and in the experiment with HCV Genotype 1B Replicon were 6530 nM and 7080 nM, respectively.

Consider `C[C@@H]1COC(=O)N1C1CCN(C(=O)c2nc3c(C(F)(F)F)cc(-c4ccoc4)cn3c2Cl)CC1` [Compound 182, (4R)-3-(1-{[3-chloro-6-(3-furanyl)-8-(trifluoromethyl)imidazo[1,2-a]pyridin-2-yl]carbonyl}-4-piperidinyl)-4-methyl-1,3-oxazolidin-2-one], for which the EC50 was found to be 130 nM in the experiment with HCV Genotype 1A Replicon and 660 nM with HCV Genotype 1B Replicon.

In the case of `CC1(N2CCOC2=O)CCN(C(=O)c2nc3c(C(F)(F)F)cc(-c4ccoc4)cn3c2Cl)CC1` [Compound 183, 3-(1-{[3-chloro-6-(3-furanyl)-8-(trifluoromethyl)imidazo[1,2-a]pyridin-2-yl]carbonyl}-4-methyl-4-piperidinyl)-1,3-oxazolidin-2-one], the EC50 with HCV Genotype 1A Replicon is not below 5010 nM; with HCV Genotype 1B Replicon, 4470 nM.

Turning to `C[C@H]1CN(C2CCN(C(=O)c3nc4c(C(F)(F)F)cc(-c5ccoc5)cn4c3Cl)CC2)C(=O)O1` [Compound 184, (5S)-3-(1-{[3-chloro-6-(3-furanyl)-8-(trifluoromethyl)imidazo[1,2-a]pyridin-2-yl]carbonyl}-4-piperidinyl)-5-methyl-1,3-oxazolidin-2-one], the EC50 in the experiment with HCV Genotype 1A Replicon turned out to be 220 nM; in the experiment on HCV Genotype 1B Replicon, 80 nM.

Consider `C[C@@H]1CN(C2CCN(C(=O)c3nc4c(C(F)(F)F)cc(-c5ccoc5)cn4c3Cl)CC2)C(=O)O1` [Compound 185, (5R)-3-(1-{[3-chloro-6-(3-furanyl)-8-(trifluoromethyl)imidazo[1,2-a]pyridin-2-yl]carbonyl}-4-piperidinyl)-5-methyl-1,3-oxazolidin-2-one], for which the EC50 with HCV Genotype 1A Replicon is 1480 nM; in the experiment with HCV Genotype 1B Replicon, 1550 nM.

In the case of `O=C(c1nc2c(C(F)(F)F)cc(-c3ccoc3)cn2c1Cl)N1CCC(n2ccoc2=O)CC1` [Compound 186, 3-(1-{[3-chloro-6-(3-furanyl)-8-(trifluoromethyl)imidazo[1,2-a]pyridin-2-yl]carbonyl}-4-piperidinyl)-1,3-oxazol-2(3H)-one], the EC50 in the experiment with HCV Genotype 1A Replicon worked out at 10 nM; in the experiment on HCV Genotype 1B Replicon, 20 nM.

On to `Nc1cc(C(F)(F)F)c2nc(C(=O)N3CCC(N4CCOC4=O)CC3)c(Cl)n2c1` [Compound 187, 3-(1-{[6-amino-3-chloro-8-(trifluoromethyl)imidazo[1,2-a]pyridin-2-yl]carbonyl}-4-piperidinyl)-1,3-oxazolidin-2-one], for which the results for the EC50 in the experiment on HCV Genotype 1A Replicon and in the experiment on HCV Genotype 1B Replicon were 4680 nM and 1620 nM, respectively.

As to `C[C@@H]1OC(=O)N(C2CCN(C(=O)c3nc4c(C(F)(F)F)cc(-c5ccoc5)cn4c3Cl)CC2)C1=O` [Compound 188, (5S)-3-(1-{[3-chloro-6-(3-furanyl)-8-(trifluoromethyl)imidazo[1,2-a]pyridin-2-yl]carbonyl}-4-piperidinyl)-5-methyl-1,3-oxazolidine-2,4-dione], the EC50 with HCV Genotype 1A Replicon was found to be 190 nM; in the experiment on HCV Genotype 1B Replicon, 60 nM.

Regarding `C[C@@H]1OC(=O)N(C2CCN(C(=O)c3nc4c(C(F)(F)F)cc(C5CC5)cn4c3Cl)CC2)C1=O` [Compound 189, (5S)-3-(1-{[3-chloro-6-cyclopropyl-8-(trifluoromethyl)imidazo[1,2-a]pyridin-2-yl]carbonyl}-4-piperidinyl)-5-methyl-1,3-oxazolidine-2,4-dione], the EC50 in the experiment with HCV Genotype 1A Replicon is 220 nM; with HCV Genotype 1B Replicon, 30 nM.

As for `C[C@@H]1OC(=O)N(C2CCN(C(=O)c3nc4c(C(F)(F)F)cc(Br)cn4c3Cl)CC2)C1=O` [Compound 190, (5S)-3-(1-{[6-bromo-3-chloro-8-(trifluoromethyl)imidazo[1,2-a]pyridin-2-yl]carbonyl}-4-piperidinyl)-5-methyl-1,3-oxazolidine-2,4-dione], the EC50 with HCV Genotype 1A Replicon was found to be 1500 nM; with HCV Genotype 1B Replicon, 70 nM.

For the compound `C[C@H]1OC(=O)N(C2CCN(C(=O)c3nc4c(C(F)(F)F)cc(-c5ccoc5)cn4c3Cl)CC2)C1=O` [Compound 191, (5R)-3-(1-{[3-chloro-6-(3-furanyl)-8-(trifluoromethyl)imidazo[1,2-a]pyridin-2-yl]carbonyl}-4-piperidinyl)-5-methyl-1,3-oxazolidine-2,4-dione], the EC50 in the experiment with HCV Genotype 1A Replicon stood at 210 nM; in the experiment with HCV Genotype 1B Replicon, 40 nM.

In the case of `C[C@H]1OC(=O)N(C2CCN(C(=O)c3nc4c(C(F)(F)F)cc(C5CC5)cn4c3Cl)CC2)C1=O` [Compound 192, (5R)-3-(1-{[3-chloro-6-cyclopropyl-8-(trifluoromethyl)imidazo[1,2-a]pyridin-2-yl]carbonyl}-4-piperidinyl)-5-methyl-1,3-oxazolidine-2,4-dione], the EC50 in the experiment on HCV Genotype 1A Replicon stood at 280 nM; with HCV Genotype 1B Replicon, 20 nM.

Consider `C[C@H]1OC(=O)N(C2CCN(C(=O)c3nc4c(C(F)(F)F)cc(Br)cn4c3Cl)CC2)C1=O` [Compound 193, (5R)-3-(1-{[6-bromo-3-chloro-8-(trifluoromethyl)imidazo[1,2-a]pyridin-2-yl]carbonyl}-4-piperidinyl)-5-methyl-1,3-oxazolidine-2,4-dione], for which the EC50 with HCV Genotype 1A Replicon was found to be 770 nM; in the experiment with HCV Genotype 1B Replicon, 90 nM.

`O=C(c1nc2c(C(F)(F)F)cc(I)cn2c1Br)N1CCC(N2CCOC2=O)CC1` [Compound 194, 3-(1-{[3-bromo-6-iodo-8-(trifluoromethyl)imidazo[1,2-a]pyridin-2-yl]carbonyl}-4-piperidinyl)-1,3-oxazolidin-2-one]: the EC50 with HCV Genotype 1A Replicon and in the experiment with HCV Genotype 1B Replicon was 30 nM each time.

`O=C(c1nc2c(C(F)(F)F)cc(I)cn2c1Br)N1CCC(N2C(=O)COC2=O)CC1` [Compound 195, 3-(1-{[3-bromo-6-iodo-8-(trifluoromethyl)imidazo[1,2-a]pyridin-2-yl]carbonyl}-4-piperidinyl)-1,3-oxazolidine-2,4-dione]: the EC50 in the experiment with HCV Genotype 1A Replicon came out at 50 nM; in the experiment on HCV Genotype 1B Replicon, 30 nM.

Consider `CC(C)c1cc(C(F)(F)F)c2nc(C(=O)N3CCC(N4CCOC4=O)CC3)cn2c1` [Compound 196, 3-(1-{[6-(1-methylethyl)-8-(trifluoromethyl)imidazo[1,2-a]pyridin-2-yl]carbonyl}-4-piperidinyl)-1,3-oxazolidin-2-one], for which the figures for the EC50 in the experiment with HCV Genotype 1A Replicon and in the experiment with HCV Genotype 1B Replicon were 1190 nM and 960 nM, respectively.

Consider `O=C(c1nc2c(C(F)(F)F)cc(C3CC3)cn2c1Br)N1CCC(N2CCOC2=O)CC1` [Compound 197, 3-(1-{[3-bromo-6-cyclopropyl-8-(trifluoromethyl)imidazo[1,2-a]pyridin-2-yl]carbonyl}-4-piperidinyl)-1,3-oxazolidin-2-one], for which the EC50 with HCV Genotype 1A Replicon and in the experiment with HCV Genotype 1B Replicon was 10 nM throughout.

Turning to `CC(=O)Nc1cc(C(F)(F)F)c2nc(C(=O)N3CCC(N4CCOC4=O)CC3)c(Cl)n2c1` [Compound 198, N-[3-chloro-2-{[4-(2-oxo-1,3-oxazolidin-3-yl)-1-piperidinyl]carbonyl}-8-(trifluoromethyl)imidazo[1,2-a]pyridin-6-yl]acetamide], the EC50 with HCV Genotype 1A Replicon and with HCV Genotype 1B Replicon was not below 5010 nM each time.

Take `O=C(c1nc2c(C(F)(F)F)cc(-c3ccoc3)cn2c1Cl)N1CCC(n2cn[nH]c2=O)CC1` [Compound 199, 4-(1-{[3-chloro-6-(3-furanyl)-8-(trifluoromethyl)imidazo[1,2-a]pyridin-2-yl]carbonyl}-4-piperidinyl)-2,4-dihydro-3H-1,2,4-triazol-3-one]: the figures for the EC50 with HCV Genotype 1A Replicon and in the experiment with HCV Genotype 1B Replicon were 4790 nM and 5370 nM, respectively.

Take `O=C(c1nc2c(C(F)(F)F)cc(C3CC3)cn2c1Cl)N1CCC(N2C(=O)CCC2=O)CC1` [Compound 200, 1-(1-{[3-chloro-6-cyclopropyl-8-(trifluoromethyl)imidazo[1,2-a]pyridin-2-yl]carbonyl}-4-piperidinyl)-2,5-pyrrolidinedione]: the EC50 with HCV Genotype 1A Replicon was 170 nM; in the experiment on HCV Genotype 1B Replicon, 30 nM.

For `O=C(c1nc2c(C(F)(F)F)cc(C3CC3)cn2c1Cl)N1CCC(N2CCCC2=O)CC1` [Compound 201, 1-(1-{[3-chloro-6-cyclopropyl-8-(trifluoromethyl)imidazo[1,2-a]pyridin-2-yl]carbonyl}-4-piperidinyl)-2-pyrrolidinone], the EC50 in the experiment on HCV Genotype 1A Replicon was determined as 100 nM; with HCV Genotype 1B Replicon, 30 nM.

Consider `O=C(c1nc2c(C(F)(F)F)cc(C3CC3)cn2c1Cl)N1CCC(N2C(=O)COC2=O)CC1` [Compound 202, 3-(1-{[3-chloro-6-cyclopropyl-8-(trifluoromethyl)imidazo[1,2-a]pyridin-2-yl]carbonyl}-4-piperidinyl)-1,3-oxazolidine-2,4-dione], for which the EC50 with HCV Genotype 1A Replicon came to 20 nM; with HCV Genotype 1B Replicon it was 10 nM.

On to `O=C(c1cn2cc(-c3ccoc3)cc(C(F)(F)F)c2n1)N1CCC(N2CCOC2=O)CC1` [Compound 203, 3-(1-{[6-(3-furanyl)-8-(trifluoromethyl)imidazo[1,2-a]pyridin-2-yl]carbonyl}-4-piperidinyl)-1,3-oxazolidin-2-one], for which the EC50 in the experiment with HCV Genotype 1A Replicon came to 320 nM; in the experiment on HCV Genotype 1B Replicon, 2340 nM.

On to `CC1(C)CN(C(=O)c2nc3c(C(F)(F)F)cc(-c4ccoc4)cn3c2Cl)CCC1N1CCOC1=O` (centres unmarked) [Compound 204, 3-(1-{[3-chloro-6-(3-furanyl)-8-(trifluoromethyl)imidazo[1,2-a]pyridin-2-yl]carbonyl}-3,3-dimethyl-4-piperidinyl)-1,3-oxazolidin-2-one], for which the EC50 in the experiment on HCV Genotype 1A Replicon came to 40 nM; in the experiment on HCV Genotype 1B Replicon, 300 nM.

Regarding `CC1(C)CC(N2CCOC2=O)CCN1C(=O)c1nc2c(C(F)(F)F)cc(-c3ccoc3)cn2c1Cl` (centres unmarked) [Compound 211, 3-(1-{[3-chloro-6-(3-furanyl)-8-(trifluoromethyl)imidazo[1,2-a]pyridin-2-yl]carbonyl}-2,2-dimethyl-4-piperidinyl)-1,3-oxazolidin-2-one], the EC50 in the experiment on HCV Genotype 1A Replicon is 580 nM; with HCV Genotype 1B Replicon it was 340 nM.

As usually defined, the EC50 is the concentration that produces a half-maximal response. Low values mean higher potency in that assay, high ones lower potency in that assay.
